Source: patent US20050267120A1 (Boehringer Ingelheim International GmbH, priority 2004, published 2005)

Tests used:
hMCH-1R = target: T1, hMCH-1R (Homo sapiens, UniProt Q99705); test: MCH-1 receptor binding test; settings: 125I-MCH binding, membranes of CHO/Galpha16 cells stably transfected with hMCH-1R
T1 construct: expressed in transfected cells; host or cells: CHO/Galpha16 cells (membrane preparation)
Experimental: 200 μL of this membrane fraction (contains 1 to 3 μg of protein) are incubated for 60 minutes at ambient temperature with 100 pM of ^125I-tyrosyl melanin concentrating hormone (^125I-MCH commercially obtainable from NEN) and increasing concentrations of the test compound in a final volume of 250 μL. After the incubation the reaction is filtered using a cell harvester through 0.5% PEI treated fiberglass filters (GF/B, Unifilter Packard). The membrane-bound radioactivity retained on the filter is then determined after the addition of scintillator substance (Packard Microscint 20) in a measuring device (TopCount of Packard). […] The analysis of the concentration binding curve is carried out on the assumption of one receptor binding site.

rats = settings: cited from earlier work
[1] = long term trials; cited from earlier work

T1 sequence (Q99705 whole entry): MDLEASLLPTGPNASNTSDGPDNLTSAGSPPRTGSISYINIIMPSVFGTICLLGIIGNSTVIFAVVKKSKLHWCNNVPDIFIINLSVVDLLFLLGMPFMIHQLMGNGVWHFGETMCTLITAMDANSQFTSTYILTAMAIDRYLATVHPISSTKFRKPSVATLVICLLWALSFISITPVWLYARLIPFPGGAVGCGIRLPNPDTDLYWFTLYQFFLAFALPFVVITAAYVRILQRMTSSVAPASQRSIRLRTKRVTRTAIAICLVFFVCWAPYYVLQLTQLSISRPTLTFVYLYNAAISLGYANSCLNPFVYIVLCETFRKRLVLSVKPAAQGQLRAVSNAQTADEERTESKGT

| IC50 (hMCH-1R) | SMILES | effects in behavioral experiments (rats) | body weight change [1] |
| --- | --- | --- | --- |
| 6 nM | OC[C@@H]1CCCN1CC1CCc2cc(C#Cc3ccc(-c4ccc(Cl)cc4)cn3)ccc2O1 (stereo partly shown) [Example 1.1] | – | – |
| 3 nM | CC1CCN(Cc2cc(=O)c3cc(C#Cc4ccc(-c5ccc(Cl)cc5)cn4)ccc3o2)CC1 [Example 2.1, 6-[5-(4-chlorophenyl)pyridin-2-ylethynyl]-2-(4-methylpiperidin-1-ylmethyl)-1-benzopyran-4-one] | – | – |
| – | COCC1=C(C(=O)OC)[C@H](c2ccc(F)c(F)c2)N(C(=O)NCCCN2CCC(c3cccc(NC(C)=O)c3)CC2)C(=O)N1 [SNAP-7941] | anxiolytic and antidepressant effects | lose significant amounts of weight |
